This passage reports EC50 results from patent US7465804B2, “Compounds, pharmaceutical compositions and methods for their use in treating metabolic disorders” (Amgen Inc., priority 2005, dated 2008).

The target of one test is T1, human GPR40 (Homo sapiens, UniProt O14842).
T1 construct: host or cells: CHO cells
T1 sequence (O14842 whole entry): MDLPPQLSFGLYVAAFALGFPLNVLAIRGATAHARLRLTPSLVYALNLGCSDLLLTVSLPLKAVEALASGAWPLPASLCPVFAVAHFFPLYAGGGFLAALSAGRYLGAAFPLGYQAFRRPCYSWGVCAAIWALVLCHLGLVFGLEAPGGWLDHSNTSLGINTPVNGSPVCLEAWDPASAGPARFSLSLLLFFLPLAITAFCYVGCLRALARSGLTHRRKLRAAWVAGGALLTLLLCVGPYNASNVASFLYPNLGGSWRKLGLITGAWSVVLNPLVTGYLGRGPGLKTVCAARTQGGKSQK
Description: Cell based aequorin assay using human GPR40. Conditions: CHO cells stably transfected with GPR40 and aequorin; 0.01% HSA; aequorin luminescence; read-out: Relative EC50. As to the method:
Cell-based aequorin assays were employed to characterize the modulatory activity of compounds on the GPR40 signaling pathway. In an exemplary assay, CHO cells were stably transfected with both GPR40 and Aequorin (Euroscreen). Cells were detached from the tissue culture dish with 2 mL of trypsin (0.25% (w/v)). Trypsinization was halted with 28 mL of Hanks Buffered Salt Solution containing 20 mM Hepes (H/HBSS) and 0.01% fatty acid-free human serum albumin (HSA). Coelantrazine was added to 1 ug/mL, and the cells were incubated for 2 hours at room temperature. Compounds were dissolved in DMSO for preparation of 10 mM stock solutions. Compounds were diluted in H/HBSS containing either 0.01% HSA. Serial dilutions of the test compounds were prepared to determine dose response.
Aequorin luminescence measurements were made using an EG&G Berthold 96-well luminometer, and the response was measured over a 20 second interval after cells and compounds were mixed. The maximum relative light units was plotted to determine dose response. The EC50 (effective concentration to reach 50% maximal response) was determined from the dose response plot.
Table 1 presents representative data (EC50 values) obtained for exemplary compounds of the invention for the relative activation of human GPR40. […]
On to `CCCCOc1ccc(C)cc1-c1ccc(COc2ccc([C@H](CC(=O)O)C(=O)N(C)C)cc2)cc1`, for which the EC50 is 10 to 100 nM.

As to `Cc1nc(-c2ccc(C(F)(F)F)cc2)sc1COc1ccc([C@H](CC(=O)O)C(=O)N(C)C)cc1`, the EC50 was in the range of 10 to 100 nM. `Cn1ccnc1C(CC(=O)O)c1ccc(OCc2cccc(-c3ccc(C(F)(F)F)cc3)c2)cc1` (centres unmarked): the EC50 is 100 to 1000 nM. Still for that read-out and setting: as for `CCCCOc1ccc(C)cc1-c1ccc(COc2ccc([C@H](CC(=O)O)c3nccn3C)cc2)cc1`, the figure is 100 to 1000 nM; as for `Cn1ccnc1C(CC(=O)O)c1ccc(OCc2cccc(Oc3ccccc3)c2)cc1` (centres unmarked), 100 to 1000 nM. With `Cc1nc(-c2ccc(C(F)(F)F)cc2)sc1COc1ccc([C@H](CC(=O)O)c2nccn2C)cc1`, the EC50 was 100 to 1000 nM. Turning to `CCOc1cccc(-c2ccc(COc3ccc([C@H](CC(=O)O)c4nccn4C)cc3)cc2)c1`, the half-maximal effective concentration (EC50) is 100 to 1000 nM. For `Cc1c(Cl)cccc1-c1cccc(COc2ccc([C@H](CC(=O)O)c3nccn3C)cc2)c1`, the half-maximal effective concentration (EC50) was 10 to 100 nM. In the case of `Cc1ccc(Cl)cc1-c1cccc(COc2ccc([C@H](CC(=O)O)c3nccn3C)cc2)c1`, the concentration giving a half-maximal response (EC50) lay within 10 to 100 nM. Take `O=C(O)CC(c1ccc(OCc2cccc(-c3ccc(C(F)(F)F)cc3)c2)cc1)c1ncco1` (centres unmarked): the EC50 was in the range of 10 to 100 nM.

`CCCCOc1ccc(C)cc1-c1ccc(COc2ccc(C(CC(=O)O)c3ncco3)cc2)cc1` (centres unmarked): the EC50 lay in the range of 10 to 100 nM. For `CCCCOc1ccc(C)cc1-c1ccc(COc2ccc([C@@H](CC(=O)O)c3ncco3)cc2)cc1`, the EC50 lay in the range of 100 to 1000 nM. With `Cc1nc(-c2ccc(C(F)(F)F)cc2)sc1COc1ccc(C(CC(=O)O)c2ncco2)cc1` (centres unmarked), the EC50 was in the range of 10 to 100 nM.

Take `CCOc1cccc(-c2ccc(COc3ccc(C(CC(=O)O)c4ncco4)cc3)cc2)c1` (centres unmarked): the EC50 fell in the range of 1000 to 10000 nM. Take `Cc1cc(Cl)ccc1-c1cccc(COc2ccc(C(CC(=O)O)c3ncco3)cc2)c1` (centres unmarked): the EC50 is 100 to 1000 nM.

As to `O=C(O)CC(c1ccc(OCc2cccc(Oc3ccccc3)c2)cc1)c1ncco1` (centres unmarked), the EC50 lay within 100 to 1000 nM. As to `Cc1cc(Cl)ccc1-c1cccc(COc2ccc([C@H](CC(=O)O)c3ncco3)cc2)c1`, the EC50 was 10 to 100 nM.

For the compound `Cc1cc(Cl)ccc1-c1cccc(COc2ccc([C@@H](CC(=O)O)c3ncco3)cc2)c1`, the EC50 was in the range of 1000 to 10000 nM. Take `CCCCOc1ccc(C)cc1-c1ccc(COc2ccc([C@H](CC(=O)O)c3ncnn3C)cc2)cc1`: the concentration for a half-maximal effect (EC50) fell in the range of 10 to 100 nM.

As for `Cc1nc(-c2ccc(C(F)(F)F)cc2)sc1COc1ccc([C@H](CC(=O)O)c2ncnn2C)cc1`, the EC50 is 100 to 1000 nM. Still for that read-out and setting: the value for `CCOc1cccc(-c2ccc(COc3ccc([C@H](CC(=O)O)c4ncnn4C)cc3)cc2)c1` was 100 to 1000 nM. The same measure, in the same setting: as for `CCCCOc1ccc(C)cc1-c1ccc(COc2ccc([C@H](CC(=O)O)c3nnnn3C)cc2)cc1`, the figure is 10 to 100 nM; as for `Cc1nc(-c2ccc(C(F)(F)F)cc2)sc1COc1ccc([C@H](CC(=O)O)c2nnnn2C)cc1`, 10 to 100 nM. Regarding `Cc1c(Cl)cccc1-c1cccc(COc2ccc([C@H](CC(=O)O)c3nnnn3C)cc2)c1`, the EC50 is less than 10 nM. The same measure, in the same setting: as for `Cc1ccc(Cl)cc1-c1cccc(COc2ccc([C@H](CC(=O)O)c3nnnn3C)cc2)c1`, the figure is 10 to 100 nM. Turning to `Cc1cc(Cl)ccc1-c1cccc(COc2ccc([C@H](CC(=O)O)C(=O)N(C)C)cc2)c1` [Example 3, (S)-3-[4-(4′-chloro-2′-methyl-biphenyl-3-ylmethoxy)-phenyl]-N,N-dimethyl-succinamic acid], the EC50 lay within 10 to 100 nM. For `Cc1ccc(-c2nc(C)c(COc3ccc([C@H](CC(=O)O)C(=O)N(C)C)cc3)s2)cc1` [Example 4, (S)-4-(dimethylamino)-3-(4-((4-methyl-2-p-tolylthiazol-5-yl)methoxy)phenyl)-4-oxobutanoic acid], the EC50 was 10 to 100 nM. Take `Cn1ncnc1[C@@H](CC(=O)O)c1ccc(OCc2cccc(-c3ccc(C(F)(F)F)cc3)c2)cc1` [Example 5, (S)-3-(2-methyl-2H-1,2,4-triazol-3-yl)-3-[4-(4′-trifluoromethyl-biphenyl-3-ylmethoxy)-phenyl]-propionic acid]: the 50% effective concentration (EC50) fell in the range of 100 to 1000 nM. Regarding `Cc1cc(Cl)ccc1-c1cccc(COc2ccc([C@H](CC(=O)O)c3ncnn3C)cc2)c1` [Example 6, (S)-3-[4-(4′-chloro-2′-methyl-biphenyl-3-ylmethoxy)-phenyl]-3-(2-methyl-2H-1,2,4-triazol-3-yl)-propionic acid], the EC50 was in the range of 10 to 100 nM. `Cn1nnnc1[C@@H](CC(=O)O)c1ccc(OCc2cccc(-c3ccc(C(F)(F)F)cc3)c2)cc1` [Example 7, (S)-3-(1-methyl-1H-tetrazol-5-yl)-3-[4-(4′-trifluoromethyl-biphenyl-3-ylmethoxy)-phenyl]-propionic acid]: the EC50 was in the range of 10 to 100 nM. `Cc1cc(Cl)ccc1-c1cccc(COc2ccc([C@H](CC(=O)O)c3nnnn3C)cc2)c1` [Example 8, (S)-3-[4-(4′-chloro-2′-methyl-biphenyl-3-ylmethoxy)-phenyl]-3-(1-methyl-1H-tetrazol-5-yl)-propionic acid]: the EC50 was 10 to 100 nM. Take `Cc1cc(Cl)ccc1-c1cccc(COc2ccc([C@H](CC(=O)O)c3nccn3C)cc2)c1` [Example 9, (S)-3-[4-(4′-chloro-2′-methyl-biphenyl-3-ylmethoxy)-phenyl]-3-(1-methyl-1H-imidazol-2-yl)-propionic acid]: the EC50 was in the range of 10 to 100 nM. Turning to `CCCCOc1ccc(C)cc1-c1ccc(COc2ccc([C@H](CC(=O)O)c3ncco3)cc2)cc1` [Example 10, (S)-3-[4-(5′-methyl-2′-butoxybiphenylmethoxy)phenyl]-3-(oxazol-2-yl)propanoic acid], the EC50 is 10 to 100 nM.

The next test concerns islet cells. Kind of test: Insulin secretion assay in human islet cells. The class given is cell-based. The settings on record: human islet cells from cadaveric donors; KRBH with 11.2 mM glucose; insulin by SPA; read-out: EC50, stimulation of insulin secretion from islet cells. As to the method: Human islets were isolated from cadaveric donors. Islets were treated with trypsin (0.25% (w/v) and cells were seeded in 96-well plates containing 3,000 cells per well. Cells were cultured in Roswell Park Memorial Institute (RMPI) media containing 10% fetal bovine serum.
For determination of insulin secretion, media was removed from islet cells and replaced with Krebs-Ringer bicarbonate buffer containing 10 mM HEPES (KRBH) and 2 mM glucose. After one hour incubation, media was replaced with KRBH conaining 11.2 mM glucose and test compounds. Insulin released into the medium from the islet cells was measured using scintillation proximity assay (SPA).
As for `Cc1ccc(-c2nc(C)c(COc3ccc([C@H](CC(=O)O)C(=O)N(C)C)cc3)s2)cc1` [Example 4, (S)-4-(dimethylamino)-3-(4-((4-methyl-2-p-tolylthiazol-5-yl)methoxy)phenyl)-4-oxobutanoic acid], the EC50 was less than 1000 nM. Regarding `Cc1cc(Cl)ccc1-c1cccc(COc2ccc([C@H](CC(=O)O)c3nccn3C)cc2)c1` [Example 9, (S)-3-[4-(4′-chloro-2′-methyl-biphenyl-3-ylmethoxy)-phenyl]-3-(1-methyl-1H-imidazol-2-yl)-propionic acid], the concentration giving a half-maximal response (EC50) is less than 1000 nM.
